Columns and labels:
IL-6 = IL-6 expression in HaCaT cells stimulated with IL-17A and TNFα (ELISA); format: cell-based, human; conditions: for Expression of IL-6, HaCaT: 10 μM solutions, HaCaT stimulated with IL-17A and TNFα, mean of five experiments in duplicate
From the text: The effect of compounds 3a-b, 4a-e, 5a-e and 6a-e on the expression of IL-6 was subsequently assessed using the HaCaT spontaneously transformed aneuploid immortal keratinocyte cell line, stimulated by the addition of IL-17A and TNFα in the culture medium (Table 1). Curcumin and ibuprofen were used as known IL-6 expression inhibitors. DMSO was used for solubilizing the drugs. […] Indeed, the inhibitory effect of these molecules was at least equivalent to that of curcumin [27] and ibuprofen, both recognized as anti-inflammatory drugs. The inhibitory effect of the substituted phenyl cycloalkylureas in accordance with an embodiment of the present disclosure on proinflammatory cytokines was also found at the mRNA level. Indeed, the mRNAs of the cytokines IL-6 and TNF-α as well as the mRNA of the chemokine IL-8 were lowered in TNF-α/IL-17A-stimulated HaCaT cells. Similar results were obtained in THP-1 cells stimulated with LPS where treatments with CHEU and 4e diminished the mRNA levels of the cytokines IL-1B, IL-6 and TNF-α in addition to the mRNA levels of the chemokine IL-8. It is surmised that the anti-inflammatory mechanism of action of the compounds of the present disclosure is likely mediated, at least in part, by modulating the phosphorylation state of the MAP kinase p38. […] Addition of a compound in accordance with an embodiment of the present disclosure, prior to stimulation with the aforementioned cytokines, decreases the level of p-p38 at 30-60 minutes post-stimulation. This diminution in p-p38 levels destabilizes the mRNAs of pro-inflammatory cytokines, non-limiting examples of which include TNF-α and IL-6. Moreover, it is surmised that the effect of the compounds of the present disclosure on p-p38 is potentially mediated by the activation of the phosphatase named DUSP1.
HaCaT cells (1×10^5) were suspended in DMEM culture media (500 μL) and incubated for 24 h in 24-well microtiter plates at 37° C. in a moisture-saturated atmosphere containing 5% CO2. Compounds were solubilized in DMSO and diluted in fresh DMEM. The compound (500 μL) was then added to the cell medium to obtain a final concentration of […] and the cells incubated over a period of 1 hour. In the meantime, IL-17α (200 ng/mL) and TNFα (20 ng/mL) (PeproTech, Rocky Hill, N.J.) were added to the drug solution in DMEM. Following the initial incubation of the cells, the culture medium was aspirated from each well and the IL-17α+ TNFα+ compound solution was added to each well for incubation (6 hours). The culture media was then removed and transferred to a clean tube (1.5 mL) at −80° C. until the ELISA test was performed. The presence of IL-6 in the cell media was determined using an IL-6 human Duoset ELISA kit (Fisher Scientific, Ottawa, On.) according to the manufacturer's instructions. Standards and samples were prepared and assessed in duplicate. Two separate replicates were performed for each sample. The absorbance was measured at 450 nm and 540 nm using a TECAN infinite M1000 plate reader.

[1] = tested on: HT-29 colon adenocarcinoma cells; assay: Antiproliferative activity (NCI procedure, sulforhodamine B), HT-29; format: cell-based, human; conditions: Homo sapiens, HT-29, 48 h; for GI50: Table 2; for IC50: Table 6, unit inferred, tested 781 nM to 100 μM
Outline: (§1)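 Cells seeded in DMEM, grown 24 h at 37 °C, then exposed 48 h to serial dilutions from 100 μM to 781 nM (DMSO <0.5%). TCA fixation, sulforhodamine B staining, absorbance at 530-568 nm; growth inhibition relative to plates fixed on treatment day. At least two experiments in triplicate.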

[2] = tested on: HaCaT keratinocyte cell line; assay: Antiproliferative activity (NCI procedure, sulforhodamine B), HaCaT; format: cell-based, human; conditions: Homo sapiens, HaCaT, 48 h; for GI50: Table 2; for IC50: Table 6, unit inferred, tested 781 nM to 100 μM
Outline: as §1

[3] = tested on: A549 adenocarcinoma alveolar epithelial cancer cells; assay: Antiproliferative activity (NCI procedure, sulforhodamine B), A549; format: cell-based, human; conditions: Homo sapiens, A549, 48 h; for GI50: Table 2; for IC50: Table 6, unit inferred, tested 781 nM to 100 μM
Outline: as §1

HaCaT cells = assay: Cell cycle analysis by flow cytometry; format: cell-based, human; conditions: for Cell cycle progression G0-G1 / Cell cycle progression G2-M / Cell cycle progression S: 10 μM, 24 h
Procedure: The effect of compounds 3a-b, 4e, 5b-c, 6a and 6e on cell cycle progression was subsequently assessed using a flow cytometer in accordance with established experimental protocols to evaluate any potential drug toxicity at specific phases of the cell cycle (Table 3).
HaCaT cells (2.5×10^5) were incubated with compounds 3a-b, 4e, 5b-c, 6a and 6e and curcumin (10 μM) over a period of 24 h. The cells were subsequently trypsinized, washed with PBS, resuspended in PBS (250 μL), fixed by the addition of ice-cold EtOH (750 μL) under agitation and stored at −20° C. until analysis. Prior to FACS analysis, cells were washed with PBS and resuspended in PBS (500 μL) containing 4′,6′-diamidino-2-phenylindole (DAPI) (2 μg/mL). The cell cycle was analyzed using an LSR II flow cytometer (BD Biosciences, Franklin Lakes, N.J.).

[4] = tested on: HDFn neonatal dermal fibroblast cell line; assay: Antiproliferative activity (NCI procedure, sulforhodamine B), HDFn; format: cell-based, human; conditions: Homo sapiens, Fibroblast, 48 h; for GI50: Table 2; for IC50: Table 6, unit inferred, tested 781 nM to 100 μM
Outline: as §1

Row | SMILES | melting point [°C] | Expression of IL-6, HaCaT (IL-6) [pg/mL] | GI50 [1] [µM] | GI50 [2] [µM] | GI50 [3] [µM] | Cell cycle progression G0-G1 (HaCaT cells) | Cell cycle progression G2-M (HaCaT cells) | Cell cycle progression S (HaCaT cells) | GI50 [4] [µM] | effect on cell cycle progression (HaCaT cells; in words) | inhibitory effect on IL-6 expression in HaCaT cells (IL-6; 10 μM, stimulated with IL-17A and TNFα, in words) | IC50 [1] [µM] | IC50 [2] [µM] | IC50 [3] [µM] | IC50 [4] [µM]
1 | CC(C)Cc1ccc(C(C)C(=O)O)cc1 (stereo not drawn) [Ibuprofen, reference compound] |  | 120.3 ± 18.6 | > 100 | > 100 | > 100 | 57.9 | 16.3 | 25.6 | > 100 |  |  |  |  |  | 
2 | COc1cc(/C=C/C(=O)CC(=O)/C=C/c2ccc(O)c(OC)c2)ccc1O [Curcumin, reference compound] |  | 62.8 ± 12.0 | 4.2 | 7 | 9.9 | 14.8 | 77.1 | 8.1 | 7.6 | clearly arresting the cell cycle progression in the G2-M phase |  |  |  |  | 
3 | O=C(Nc1cccc(I)c1)NC1CC1 [Compound 36, 1-Cyclopropyl-3-(3-iodophenyl)urea] | 153 to 154 | 57.3 ± 4.4 | > 100 | > 100 | 84 |  |  |  | 79 |  |  | ≥ 100 | ≥ 100 | 84 | 79
4 | CC(C)(C)c1cccc(NC(=O)NC2CC2)c1 [Compound 44] | 169 to 171 | 50.4 ± 2.6 | > 100 | > 100 | > 100 |  |  |  | > 100 |  |  | ≥ 100 | ≥ 100 | ≥ 100 | ≥ 100
5 | O=C(Nc1ccc(I)cc1)NC1CC1 [Compound 20, 1-Cyclopropyl-3-(4-iodophenyl)urea] |  | 47.9 ± 4.5 | 82 | > 100 | > 100 |  |  |  | 95 |  |  | 82 | ≥ 100 | ≥ 100 | 95

Further lines, with some results ahead:

Row | melting point [°C] | SMILES | Expression of IL-6, HaCaT (IL-6) [pg/mL] | GI50 [1] [µM] | GI50 [2] [µM] | GI50 [3] [µM] | Cell cycle progression G0-G1 (HaCaT cells) | Cell cycle progression G2-M (HaCaT cells) | Cell cycle progression S (HaCaT cells) | GI50 [4] [µM] | effect on cell cycle progression (HaCaT cells; in words) | inhibitory effect on IL-6 expression in HaCaT cells (IL-6; 10 μM, stimulated with IL-17A and TNFα, in words) | IC50 [1] [µM] | IC50 [2] [µM] | IC50 [3] [µM] | IC50 [4] [µM]
6 | 172 to 173 | O=C(NCC1CCC1)Nc1ccc(C2CCCCC2)cc1 [Compound 57, 1-(Cyclobutylmethyl)-3-(4-cyclohexylphenyl)urea] | 64.1 ± 5.4 | > 100 | > 100 | > 100 |  |  |  | > 100 |  | significant inhibitory effect | ≥ 100 | ≥ 100 | ≥ 100 | ≥ 100
7 | 138 to 140 | O=C(NCC1CCC1)Nc1cccc(I)c1 [Compound 39, 1-(Cyclobutylmethyl)-3-(3-iodophenyl)urea] | 90.2 ± 11.1 | 25 | 31 | 25 |  |  |  | 15 |  |  | 25 | 31 | 25 | 15
8 | 188 to 191 | O=C(Nc1ccc(I)cc1)NC1CCCC1 [Compound 24, 1-Cyclopentyl-3-(4-iodophenyl)urea] | 65.1 ± 7.6 | 9.7 | > 100 | 62 |  |  |  | > 100 |  |  | 9.7 | ≥ 100 | 62 | ≥ 100
9 | 179 to 184 | CC(C)(C)c1ccc(NC(=O)NCC2CCC2)cc1 [Compound 30, 1-(4-(t-Butyl)phenyl)-3-(cyclobutylmethyl)urea] | 70.6 ± 7.6 | 21 | 35 | > 100 |  |  |  | 8.2 |  |  | 21 | 35 | ≥ 100 | 8.2
10 | 142 to 143 | O=C(Nc1cccc(I)c1)NC1CCCC1 [Compound 40, 1-Cyclopentyl-3-(3-iodophenyl)urea] | 89.8 ± 9.0 | 30 | 49 | 30 |  |  |  | 23 |  |  | 30 | 49 | 30 | 23
11 | 152 to 154 | CC(C)(C)c1cccc(NC(=O)NC2CCCC2)c1 [Compound 48, 1-(3-(t-Butyl)phenyl)-3-cyclopentylurea] | 74.6 ± 6.7 | 27 | > 100 | 34 |  |  |  | 84 |  |  | 27 | ≥ 100 | 34 | 84
12 | 138 to 139 | CC(C)(C)c1ccc(NC(=O)NC2CC2)cc1 [Compound 27, 1-(4-(t-Butyl)phenyl)-3-cyclopropylurea] | 91.9 ± 7.6 | 85 | > 100 | > 100 |  |  |  | 55 |  |  | 85 | ≥ 100 | ≥ 100 | 55
